Results from patent US12077502B2, “Formulations of T-type calcium channel modulators and methods of use thereof” (PRAXIS PRECISION MEDICINES, INC., priority 2019, dated 2024).

Assay: Safety and tolerability in the essential tremor clinical study
Assay type: in vivo, human
Settings: 20 mg then 40 mg once a day, 14 days (formulation 5), emerging data

SMILES: CC(C)(C)NC(=O)CN1CCC(CNC(=O)c2cc(F)cc(Cl)c2)CC1 [compound of formula (I)]
- tolerability: well tolerated
